Assay results: publication PMC7316778 (Nature Communications, 2020)
Where “and” joins values, the source holds several entries; their conditions need not be identical. Equal values may be shown once.

How the values were obtained:
[1] = target: FER^WT (Homo sapiens, UniProt P16591); assay: In vitro TR-FRET kinase assay
[2] = target: T1, FES^WT (Homo sapiens, UniProt P07332); assay: In vitro TR-FRET kinase assay; assay type: biochemical; settings: for IC50: TR-FRET assay, 5 µM ATP, n = 3, read-out: pIC50 FES^WT (converted); for Residual activity (%): FES WT, mean, n=3
T1 construct: human FES cDNA encoding residues 448–822 or human FER cDNA encoding residues 448–820 was amplified by PCR; made in house; host or cells: E. coli BL21(DE3), co-expressing YopH phosphatase
Procedure: All measurements were performed in triplicate.

[3] = tested on: FES^S700C HL-60 neutrophils; assay: Phagocytosis assay with GFP-expressing E. coli; assay type: cell-based, human; settings: for Phagocytic index: Figure 7i, replicates
Procedure: HL-60 cells were differentiated to neutrophils as described above. Cells were counted and centrifuged (200g, 5 min), followed by resuspension in growth medium without antibiotics. Cells were incubated with vehicle or inhibitor (from 1000x concentrated stocks in DMSO) for 1 h at 37 °C prior to infection (1×10^6 cells in 900 µL in 12-well plate). Meanwhile, E. coli B834(DE3) constitutively expressing GFP^A206K were grown in LB medium to an OD600 of 0.4–1.0, after which bacteria were centrifuged (2000g, 5 min), washed and resuspended in PBS to appropriate density. Neutrophils were infected by addition of bacteria at multiplicity of infection (MOI) of 30 unless stated otherwise. Cells were then incubated for 1 h at 37 °C unless stated otherwise, after which cells were resuspended and transferred to Eppendorf tubes, washed in FACS buffer (1 mL, 500g, 3 min) and fixed in 1% PFA in PBS (15 min, 4 °C, in the dark). Samples were further processed as described above.
Events (generally 20,000 per condition) were gated by forward and side scatter (cells), side scatter area (singlets) and the percentage of GFP-positive cells and GFP mean fluorescence intensity (MFI) were determined based on background fluorescence for non-infected cells. The GREEN-B channel (525/30 filter) was used to detect GFP.

T1 sequence (P07332 448-822): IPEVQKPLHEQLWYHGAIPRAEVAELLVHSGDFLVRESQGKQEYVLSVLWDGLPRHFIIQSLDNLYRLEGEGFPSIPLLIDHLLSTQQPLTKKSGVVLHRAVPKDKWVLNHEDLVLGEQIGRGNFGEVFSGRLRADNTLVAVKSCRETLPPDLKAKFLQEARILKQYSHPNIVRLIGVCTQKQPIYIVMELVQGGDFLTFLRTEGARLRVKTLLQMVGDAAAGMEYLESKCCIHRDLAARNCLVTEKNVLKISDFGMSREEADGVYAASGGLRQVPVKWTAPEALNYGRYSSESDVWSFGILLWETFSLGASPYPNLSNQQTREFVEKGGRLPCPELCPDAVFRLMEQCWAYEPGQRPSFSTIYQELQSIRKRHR
Chain of FER^WT (P16591 448-820): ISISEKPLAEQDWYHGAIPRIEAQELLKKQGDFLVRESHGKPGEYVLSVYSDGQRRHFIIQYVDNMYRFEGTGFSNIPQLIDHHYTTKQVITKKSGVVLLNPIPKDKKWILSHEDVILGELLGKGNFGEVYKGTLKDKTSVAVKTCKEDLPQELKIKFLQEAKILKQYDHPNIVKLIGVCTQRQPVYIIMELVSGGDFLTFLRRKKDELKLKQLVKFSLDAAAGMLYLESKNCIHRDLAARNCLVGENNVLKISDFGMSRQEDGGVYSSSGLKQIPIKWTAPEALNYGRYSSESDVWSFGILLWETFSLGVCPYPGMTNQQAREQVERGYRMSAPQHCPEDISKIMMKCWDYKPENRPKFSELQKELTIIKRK

Row | SMILES | Residual activity (%) WT Mean ([1]; log[inhibitor] (M) -5) | Residual activity (%) WT Mean ([1]; log[inhibitor] (M) -5.52288) | Residual activity (%) WT Mean ([1]; log[inhibitor] (M) -6) | Residual activity (%) WT Mean ([1]; log[inhibitor] (M) -6.52288) | Residual activity (%) WT Mean ([1]; log[inhibitor] (M) -7) | Residual activity (%) WT Mean ([1]; log[inhibitor] (M) -7.52288) | Residual activity (%) WT Mean ([1]; log[inhibitor] (M) -8) | Residual activity (%) WT Mean ([1]; log[inhibitor] (M) -8.52288) | Residual activity (%) WT Mean ([1]; log[inhibitor] (M) -9) | Residual activity (%) WT Mean ([1]; log[inhibitor] (M) -9.52288) | Residual activity (%) WT Mean ([1]; log[inhibitor] (M) -10) | Residual activity (%) WT Mean ([1]; log[inhibitor] (M) -10.5229) | Residual activity (%) WT Mean ([1]; log[inhibitor] (M) -11) | also measured
1 | Nc1ncnc2c1ncn2[C@@H]1O[C@H](COP(=O)(O)OP(=O)(O)OP(=O)(O)O)[C@@H](O)[C@H]1O [ATP] | – | – | – | – | – | – | – | – | – | – | – | – | – | Km ([1]; read-out: ATP KM, FER^WT): 11 µM; Km ([2]; FES^WT, TR-FRET, 60 min, read-out: ATP KM): 1.9 µM
2 | COc1ccccc1Nc1ncc(Cl)c(Nc2ccccc2S(=O)(=O)C(C)C)n1 [Compound 2] | – | – | – | – | – | – | – | – | – | – | – | – | – | IC50 [1]: 5.01 nM; IC50 [2]: 50.1 nM
3 | C=CC(=O)Nc1ccccc1Nc1nc(Nc2ccccc2OC)ncc1Cl [Compound 4] | – | – | – | – | – | – | – | – | – | – | – | – | – | IC50 [1]: 200 nM; IC50 [2]: 2000 nM
4 | CCC(=O)Nc1ccccc1Nc1nc(Nc2ccccc2OC)ncc1Cl [Compound 5] | – | – | – | – | – | – | – | – | – | – | – | – | – | IC50 [1]: 126 nM; IC50 [2]: > 10000 nM
5 | COc1cc(Nc2ncc(F)c(Nc3ccc4c(n3)NC(=O)C(C)(C)O4)n2)cc(OC)c1OC [Compound R406, R406] | – | – | – | – | – | – | – | – | – | – | – | – | – | Phagocytic index [3]: 212.415 and 224.559 and 218.427 and 271.225 and 264.489; Phagocytosis ([3]; R406 1 µM): reduced phagocytosis to similar levels as observed for WEL028
6 | COc1ccc2c(c1)CC[C@@H]1[C@@H]2CC[C@]2(C)[C@@H](NCCCCCCN3C(=O)C=CC3=O)CC[C@@H]12 [Compound U-73122, U-73122] | – | – | – | – | – | – | – | – | – | – | – | – | – | Phagocytic index [3]: 64.8265 and 82.4025 and 81.0921 and 67.7147 and 64.5235
7 | COc1ccccc1Nc1ncc(Cl)c(Nc2ccccc2S(=O)(=O)C(C)C)n1 [Supplementary Figure 1c] | – | – | – | – | – | – | – | – | – | – | – | – | – | Residual activity (%) ([2]; log[inhibitor] (M) = -5): 3.135%; Residual activity (%) ([2]; log[inhibitor] (M) = -5.52288): 1.274%; Residual activity (%) ([2]; log[inhibitor] (M) = -6): 0.9673%; Residual activity (%) ([2]; log[inhibitor] (M) = -6.52288): 3.912%; Residual activity (%) ([2]; log[inhibitor] (M) = -7): 25.313%; Residual activity (%) ([2]; log[inhibitor] (M) = -7.52288): 69.4661%; Residual activity (%) ([2]; log[inhibitor] (M) = -8): 80.7219%; Residual activity (%) ([2]; log[inhibitor] (M) = -8.52288): 93.5112%; Residual activity (%) ([2]; log[inhibitor] (M) = -9): 92.1668%; Residual activity (%) ([2]; log[inhibitor] (M) = -9.52288): 93.0906%; Residual activity (%) ([2]; log[inhibitor] (M) = -10): 84.5762%; Residual activity (%) ([2]; log[inhibitor] (M) = -10.5229): 85.1733%; Residual activity (%) ([2]; log[inhibitor] (M) = -11): 101.85%
8 | C=CC(=O)Nc1cccc(Nc2nc(Nc3ccccc3OC)ncc2Cl)c1 [Supplementary Figure 1d] | – | – | – | – | – | – | – | – | – | – | – | – | – | Residual activity (%) ([2]; log[inhibitor] (M) = -5): 32.3982%; Residual activity (%) ([2]; log[inhibitor] (M) = -5.52288): 40.0335%; Residual activity (%) ([2]; log[inhibitor] (M) = -6): 62.9411%; Residual activity (%) ([2]; log[inhibitor] (M) = -6.52288): 63.4299%; Residual activity (%) ([2]; log[inhibitor] (M) = -7): 90.1255%; Residual activity (%) ([2]; log[inhibitor] (M) = -7.52288): 87.1043%; Residual activity (%) ([2]; log[inhibitor] (M) = -8): 96.4271%; Residual activity (%) ([2]; log[inhibitor] (M) = -8.52288): 92.3122%; Residual activity (%) ([2]; log[inhibitor] (M) = -9): 101.396%; Residual activity (%) ([2]; log[inhibitor] (M) = -9.52288): 120.198%; Residual activity (%) ([2]; log[inhibitor] (M) = -10.5229): 97.4644%; Residual activity (%) ([2]; log[inhibitor] (M) = -11): 93.0274%
9 | C=CC(=O)Nc1ccccc1Nc1nc(Nc2ccccc2OC)ncc1Cl [Supplementary Figure 1e] | – | – | – | – | – | – | – | – | – | – | – | – | – | Residual activity (%) ([2]; log[inhibitor] (M) = -5): 4.602%; Residual activity (%) ([2]; log[inhibitor] (M) = -5.52288): 7.942%; Residual activity (%) ([2]; log[inhibitor] (M) = -6): 20.2502%; Residual activity (%) ([2]; log[inhibitor] (M) = -6.52288): 52.3925%; Residual activity (%) ([2]; log[inhibitor] (M) = -7): 77.2757%; Residual activity (%) ([2]; log[inhibitor] (M) = -7.52288): 90.9565%; Residual activity (%) ([2]; log[inhibitor] (M) = -8): 93.9799%; Residual activity (%) ([2]; log[inhibitor] (M) = -8.52288): 103.383%; Residual activity (%) ([2]; log[inhibitor] (M) = -9): 97.8768%; Residual activity (%) ([2]; log[inhibitor] (M) = -9.52288): 97.6076%; Residual activity (%) ([2]; log[inhibitor] (M) = -10): 100%; Residual activity (%) ([2]; log[inhibitor] (M) = -10.5229): 116.125%
10 | COc1ccccc1Nc1ncc(Cl)c(Nc2ccccc2S(=O)(=O)C(C)C)n1 [Supplementary Figure 8c] | 0.06517% | 0.1492% | -0.06836% | 0.8273% | 4.343% | 12.0728% | 31.4398% | 59.2785% | 83.3824% | 101.278% | 106.348% | 105.352% | 108.85% | –
11 | C=CC(=O)Nc1ccccc1Nc1nc(Nc2ccccc2OC)ncc1Cl [Supplementary Figure 8d] | 4.829% | 6.417% | 19.305% | 38.3519% | 71.19% | 87.6084% | 99.295% | 98.6881% | 106.616% | 102.334% | 107.184% | 102.376% | 116.944% | –
12 | CCC(=O)Nc1ccccc1Nc1nc(Nc2ccccc2OC)ncc1Cl [Supplementary Figure 8e] | 15.6173% | 11.558% | 19.5081% | 74.3812% | 96.1324% | 93.3601% | 104.761% | 92.7732% | 106.725% | 98.2336% | 113.972% | 97.8463% | 108.607% | –
13 | C#CCOc1ccc(Nc2ncc(Cl)c(Nc3ccccc3NC(=O)C=C)n2)c(OC)c1 [Supplementary Figure 8f] | 5.2329% | 3.792% | 14.1153% | 25.7365% | 62.4124% | 74.9371% | 97.3541% | 92.3988% | 107.069% | 97.7799% | 105.81% | 90.1497% | 111.768% | –
